Results: patent US20060020110A1, “Synthetic peptides that bind to the hepatitis B virus core and E antigens” (priority 2000, published 2006)

What was measured:
HBcAg [1] = target: T1, HBcAg (Hepatitis B virus genotype D subtype ayw, UniProt P03146); settings: for OD at 490 nm, HBcAg binding to support-bound amino terminal deletion peptides: HBcAg added at 5 μg/ml; for OD at 405 nm to indicated antigen: HBcAg 0.2 μg/well / OD at 405 nm to indicated antigen: HBcAg 2 μg/well: support-bound peptide
Source text: (§1) One approach to rational drug design involves sequential amino acid deletion of a known binding partner starting from either the amino or carboxy termini. Amino-terminal deletions of the binding partners of SEQ. ID. Nos. 5 and 17 were made and these peptide fragments were joined to a support and analyzed for the ability to bind HBcAg. […] ID. […] The amino-terminal deletions of the peptide of SEQ. ID. […] The amino-terminal deletion products of the peptide of SEQ. ID. […] ID.
To determine whether a candidate binding partner bound to HBcAg and/or HbeAg, a multimeric support-based binding assay was performed. Accordingly, synthetic peptides corresponding to the VH and VL domains of the sequenced mAbs were passively adsorbed to 96 well microplates in serial dilutions starting at 200 μg/ml. The peptide coated plates were then incubated with HBcAg and HBeAg serially diluted in PBS-GT. The amount of HBcAg and HBeAg bound by the peptides was then detected using a mAb directed to an epitope common to HBcAg and HBeAg (See Sällberg et al., J General Virology 74:1335-1340 (1993), herein expressly incorportaed by reference in its entirety) diluted 1:3000 in PBS-GT. The quantity of bound mAb was determined by addition by peroxidase labeled rabbit anti-mouse IgG (P260, Dako A S, Denmark). The plates were developed by incubation with ortho-phenylene-diamine (Sigma) and the absorbance at 492 nm was evaluated.
The converse of an aspect of this experiment was also performed. That is, various dilutions of support-bound binding partners (SEQ. ID. Nos. 5, 16, 17, 28, and 29) were contacted with 10 μg/ml of HBcAg and binding was evaluated. ID.

HBcAg [2] = target: T1, HBcAg; settings: peptide added prior to addition of mAb; uninhibited control mean OD 0.871
Source text: as §1
Variations of the characterization assays described above include competitive binding assays. […] Initial experiments were conducted by contacting binding partner to HBcAg prior to introducing the antibody. […] ID. […] ID. […] ID. […] ID. […] ID. […] ID.

HBcAg [3] = target: T1, HBcAg; settings: for OD at 490 nm, bound peptide SEQ. ID. No. 74: HBcAg coated 1 μg/ml, 5 μg SEQ. ID. No. 74 + 5 μg HBcAg peptide, no inhibitor OD 1.454; for Std. Deviation from the mean: deviation of the OD from the mean OD of all peptides; for Effect on binding of peptide SEQ. ID. No. 74 to HBcAg (in words): 5 μg HBcAg peptide + 5 μg SEQ. ID. No. 74, triplicate
Method: In this experiment, microplates were coated overnight with 1 μg/ml HBcAg and, subsequently, a 100 μl mixture containing 5 μg of the peptide […] […] The HBcAg peptides were approximately 20 amino acids in length and corresponded to regions of HBcAg spanning amino acid residues 11-183. The experiment was performed in triplicate.

T1 sequence (P03146 whole entry, the tested form may be a part): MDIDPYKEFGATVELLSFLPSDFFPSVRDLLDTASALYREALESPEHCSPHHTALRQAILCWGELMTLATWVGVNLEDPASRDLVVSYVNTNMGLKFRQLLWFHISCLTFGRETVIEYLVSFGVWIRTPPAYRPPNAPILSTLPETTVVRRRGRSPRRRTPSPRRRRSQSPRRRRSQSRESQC

Substance	OD at 490 nm, HBcAg binding to support-bound amino terminal deletion peptides (HBcAg [1])	OD at 490 nm, bound peptide SEQ. ID. No. 74 (HBcAg [3])	Std. Deviation from the mean (HBcAg [3])	further results
TSSYSYMHWY [SEQ. ID. No. 62]	0.317			
GYIFTS [SEQ. ID. No. 52]	0.414			OD at 490 nm, mAb 4-2 binding to HBcAg (HBcAg [2]): 0.903
CKASGYIFTS [SEQ. ID. No. 48]	0.255			OD at 490 nm, mAb 4-2 binding to HBcAg (HBcAg [2]): 0.851
YSYMHWY [SEQ. ID. No. 64]	0.245			
AYRPPNAPILSTLPETTVVR [SEQ. ID. No. 108]		1.564	1.052	
ASVKLSCKASGYIFTS [SEQ. ID. No. 42]	3.219			OD at 490 nm, mAb 4-2 binding to HBcAg (HBcAg [2]): 0.207
SSYSYMHWY [SEQ. ID. No. 63]	0.311			
YDIDWVRQTPEQGLEWIGWI (Synthetically prepared amino acid sequence) [Peptide 4]				OD at 405 nm to indicated antigen: HBcAg 0.2 μg/well (HBcAg [1]): 0.202; OD at 405 nm to indicated antigen: HBcAg 2 μg/well (HBcAg [1]): 0.551
QSVSTSSYSYMHWY [SEQ. ID. No. 58]	0.282			
SVSTSSYSYMHWY [SEQ. ID. No. 59]	0.305			
QLNSLTSEDSAVYYCARGKG (Synthetically prepared amino acid sequence) [Peptide 32]				OD at 405 nm to indicated antigen: HBcAg 0.2 μg/well (HBcAg [1]): 0.121; OD at 405 nm to indicated antigen: HBcAg 2 μg/well (HBcAg [1]): 0.528
LSCKASGYIFTS [SEQ. ID. No. 46]	0.565			OD at 490 nm, mAb 4-2 binding to HBcAg (HBcAg [2]): 0.777
ASQSVSTSSYSYMHWY [SEQ. ID. No. 56]	0.324			
LWFHISCLTFGRETVIEYLV [SEQ. ID. No. 105]		1.129	.175	
SDFFPSVRDLLDTASALYRE [SEQ. ID. No. 97]		1.576	1.077	
VSTSSYSYMHWY [SEQ. ID. No. 60]	0.369			
LVTVSAAKTTPPSVYPLVPV (Synthetically prepared amino acid sequence) [Peptide 35]				OD at 405 nm to indicated antigen: HBcAg 0.2 μg/well (HBcAg [1]): 0.198; OD at 405 nm to indicated antigen: HBcAg 2 μg/well (HBcAg [1]): 0.59
SCRASQSVSTSSYSYMHWY [SEQ. ID. No. 53]	1.452			
SGYIFTS [SEQ. ID. No. 51]	0.389			OD at 490 nm, mAb 4-2 binding to HBcAg (HBcAg [2]): 0.887
STLPETTVVRRRGRSPRRRT [SEQ. ID. No. 109]		0.811	−0.466	
RRGRSPRRRTPSPRRRRSQS [SEQ. ID. No. 110]		0.732	−0.625	
SRDLVVSYVNTNMGLKFRQL [SEQ. ID. No. 103]		0.386	−1.323	Effect on binding of peptide SEQ. ID. No. 74 to HBcAg (in words) (HBcAg [3]): consistently reduced the binding

Substance	OD at 490 nm, HBcAg binding to support-bound amino terminal deletion peptides (HBcAg [1])	OD at 490 nm, bound peptide SEQ. ID. No. 74 (HBcAg [3])	Std. Deviation from the mean (HBcAg [3])	further results
SCKASGYIFTS [SEQ. ID. No. 47]	0.297			OD at 490 nm, mAb 4-2 binding to HBcAg (HBcAg [2]): 0.784
ATVELLSFLPSDFFPSVRDL [SEQ. ID. No. 96]		1.387	0.696	
SVKLSCKASGYIFTS [SEQ. ID. No. 43]	3.364			OD at 490 nm, mAb 4-2 binding to HBcAg (HBcAg [2]): 0.175
ALESPEHCSPHHTALRQAIL [SEQ. ID. No. 99]		1.372	0.665	
SYMHWY [SEQ. ID. No. 65]	0.218			
CKASGYIFTSYDIDWVRQTP (Synthetically prepared amino acid sequence) [Peptide 3]				OD at 405 nm to indicated antigen: HBcAg 0.2 μg/well (HBcAg [1]): 0.187; OD at 405 nm to indicated antigen: HBcAg 2 μg/well (HBcAg [1]): 0.525
SQSVSTSSYSYMHWY [SEQ. ID. No. 57]	0.310			
LDTASALYREALESPEHCSP [SEQ. ID. No. 98]		1.589	1.103	
KPGASVKLSCKASGYIFTS [SEQ. ID. No. 39]	1.337			OD at 490 nm, mAb 4-2 binding to HBcAg (HBcAg [2]): 0.202
PGASVKLSCKASGYIFTS [SEQ. ID. No. 40]	1.722			OD at 490 nm, mAb 4-2 binding to HBcAg (HBcAg [2]): 0.182
ELTRLTSEDSAVYFCARGDY (Synthetically prepared amino acid sequence) [Peptide 9]				OD at 405 nm to indicated antigen: HBcAg 0.2 μg/well (HBcAg [1]): 0.195; OD at 405 nm to indicated antigen: HBcAg 2 μg/well (HBcAg [1]): 0.574
GRETVIEYLVSFGVWIRTPP [SEQ. ID. No. 106]		0.832	−0.423	
ASGYIFTS [SEQ. ID. No. 50]	0.407			OD at 490 nm, mAb 4-2 binding to HBcAg (HBcAg [2]): 0.920
CWGELMTLATWVGVNLEDPA [SEQ. ID. No. 101]		1.395	0.712	
KASGYIFTS [SEQ. ID. No. 49]	0.237			OD at 490 nm, mAb 4-2 binding to HBcAg (HBcAg [2]): 0.866
CRASQSVSTSSYSYMHWY [SEQ. ID. No. 54]	1.415			
WVGVNLEDPASRDLVVSYVN [SEQ. ID. No. 102]		1.411	0.744	
KLSCKASGYIFTS [SEQ. ID. No. 45]	3.694			OD at 490 nm, mAb 4-2 binding to HBcAg (HBcAg [2]): 0.808
RASQSVSTSSYSYMHWY [SEQ. ID. No. 55]	0.429			
TNMGLKFRQLLWFHISCLTF [SEQ. ID. No. 104]		0.058	−1.984	Effect on binding of peptide SEQ. ID. No. 74 to HBcAg (in words) (HBcAg [3]): consistently reduced the binding
STSSYSYMHWY [SEQ. ID. No. 61]	0.372			
PSPRRRRSQSPRRRRSQSRESQC [SEQ. ID. No. 111]		0.678	−0.734	
